Broadly, the IC50 is the concentration that gives 50% inhibition.

Data on 23 molecules can be found in patent US20240270748A1 (Merck Patent GmbH, priority 2021, published 2024).

Assay [1] deals with YAP-TEAD interaction. Kind of assay: SK-HEP-1 reporter assay (8xTEAD responsive elements driving NanoLuc luciferase). Format: cell-based. The method, boiled down: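 Reporter read-out: NanoLuc luminescence from 8×TEAD elements stably integrated in SK-HEP-1 cells, after 24 h compound exposure at 37° C. Ten concentrations tested in duplicate, top 30 μM final, 0.3% DMSO; IC50 from curve.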
Background: Reporter assays use an easily measured gene product as a stand-in for the process of interest.

Assay [2] deals with NCI-H226 cells. Kind of assay: Viability assay in NCI-H226 (Yap-dependent) cells, CyQuant. Format: cell-based, human. The method, boiled down:
(§1)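 Seeded cells were dosed 24 h later in duplicate (10-point, 1:3 dilutions, top 30 μM final, 0.3% DMSO) and incubated 96 h at 37 °C. Viability was read with CyQUANT DNA dye after 1 h, fluorescence bottom read. NCI-H226 in RPMI 1640 medium; SW620 YAP/TAZ CRISPR knockout in DMEM/F-12 medium.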

Assay [3] has as its system SW620 Yap KO cells. The experiment in a line: Viability assay in SW620 Yap KO (Yap independent) cells, CyQuant. To be noted: Homo sapiens, SW-620, 96 h. Format: cell-based. The method, boiled down: as §1
[4] abbreviates: Homo sapiens, SK-HEP1, SK-HEP-1 reporter assay, class symbols.
The mark [5] stands for this setting: Homo sapiens, NCI-H226, 96 h, class symbols.
Setting [6] is: n.d. = value not detectable below threshold given in parentheses, ND = not determinable within the entire range.
Where [7] appears, read: Homo sapiens, SK-HEP1, SK-HEP-1 reporter assay, n.d. = value not detectable below threshold given in parentheses, ND = not determinable within the entire range.

Consider `Cc1snc2c1c1cc(C(=O)N[C@@H](C)CO)ccc1n2-c1ccc(C(F)(F)F)cc1` [Example C70, N-[(2S)-1-hydroxypropan-2-yl]-3-methyl-8-[4-(trifluoromethyl)phenyl]-8H-[1,2]thiazolo [3,4-b]indole-5-carboxamide], for which the half-inhibitory concentration (IC50) in assay [1] (setting [4]) is 10 to 100 nM; in assay [2] (setting [5]), 1 to 100 nM; in assay [3] (setting [6]), over 3.2 µM.

For `Cn1cc2c3cc(S(=O)(=O)NC4CC4)ccc3n(-c3ccc(C(F)(F)F)cc3)c2n1` [Example C72, N-cyclopropyl-2-methyl-8-[4-(trifluoromethyl)phenyl]-2H,8H-pyrazolo[3,4-b]indole-5-sulfonamide], the 50% inhibitory concentration (IC50) was 1 to 10 nM in assay [1] (setting [4]); over 3200 nM in assay [2] (Homo sapiens, NCI-H226, 96 h, n.d. = value not detectable below threshold given in parentheses); over 3.2 µM in assay [3] (setting [6]).

On to `CC[C@H](CO)NC(=O)c1ccc2c(c1)c1c(C)snc1n2-c1ccc(C(F)(F)F)cc1` [Example C77, N-[(2R)-1-hydroxybutan-2-yl]-3-methyl-8-[4-(trifluoromethyl)phenyl]-8H-[1,2]thiazolo[3,4-b]indole-5-carboxamide], for which the concentration for half-maximal inhibition (IC50) in assay [1] (setting [4]) is 10 to 100 nM; in assay [2] (setting [5]), 1 to 100 nM; in assay [3] (setting [6]), over 3.2 µM.

Turning to `Cc1snc2c1c1cc(C(=O)N[C@](C)(CO)c3ccccc3)ccc1n2-c1ccc(C(F)(F)F)cc1` [Example C80, N-[(2S)-1-hydroxy-2-phenylpropan-2-yl]-3-methyl-8-[4-(trifluoromethyl)phenyl]-8H-[1,2]thiazolo[3,4-b]indole-5-carboxamide], the IC50 was 10 to 100 nM in assay [1] (setting [4]), 1 to 100 nM in assay [2] (setting [5]) and over 30 µM in assay [3] (setting [6]).

For `Cc1snc2c1c1cc(C(=O)N[C@H](c3ccccc3)[C@H](C)O)ccc1n2-c1ccc(C(F)(F)F)cc1` [Example C81, N-[(1R,2S)-2-hydroxy-1-phenylpropyl]-3-methyl-8-[4-(trifluoromethyl)phenyl]-8H-[1,2]thiazolo[3,4-b]indole-5-carboxamide], the concentration for half-maximal inhibition (IC50) in assay [1] (setting [4]) was 10 to 100 nM; in assay [2] (setting [5]) it was 1 to 100 nM; in assay [3] (setting [6]) it was over 3.2 µM.

As for `CC[C@@H](CO)NC(=O)c1ccc2c(c1)c1c(C)snc1n2-c1ccc(C(F)(F)F)cc1` [Example C83, N-[(2S)-1-hydroxybutan-2-yl]-3-methyl-8-[4-(trifluoromethyl)phenyl]-8H-[1,2]thiazolo [3,4-b]indole-5-carboxamide], the IC50 was 10 to 100 nM in assay [1] (setting [4]), 1 to 100 nM in assay [2] (setting [5]) and over 30 µM in assay [3] (setting [6]).

As for `Cn1cc2c3cc(S(=O)(=O)NCCCO)ccc3n(-c3ccc(C(F)(F)F)cc3)c2n1` [Example C85, N-(3-hydroxypropyl)-2-methyl-8-[4-(trifluoromethyl)phenyl]-2H,8H-pyrazolo[3,4-b]indole-5-sulfonamide], the IC50 in assay [1] (setting [7]) is over 30000 nM; in assay [2] (setting [5]) it was 1000 to 10000 nM; in assay [3] (setting [6]), over 30 µM.

For the molecule `Cn1nc2c3cc(C(=O)N[C@@H](CO)C(F)(F)F)ccc3n(-c3ccc(C(F)(F)F)cc3)c2n1` [Example C86, 2-methyl-N-[(2S)-1,1,1-trifluoro-3-hydroxypropan-2-yl]-4-[4-(trifluoromethyl)phenyl]-2H,4H-[1,2,3]triazolo [4,5-b]indole-7-carboxamide], the 50% inhibitory concentration (IC50) was 10 to 100 nM in assay [1] (setting [4]), 1 to 100 nM in assay [2] (setting [5]) and over 30 µM in assay [3] (setting [6]).

For the molecule `Cc1snc2c1c1cc(C(=O)N[C@H](CO)C(C)C)ccc1n2-c1ccc(C(F)(F)F)cc1` [Example C88, N-[(2S)-1-hydroxy-3-methylbutan-2-yl]-3-methyl-8-[4-(trifluoromethyl)phenyl]-8H-[1,2]thiazolo[3,4-b]indole-5-carboxamide], the half-maximal inhibitory concentration (IC50) is 10 to 100 nM in assay [1] (setting [4]), 100 to 1000 nM in assay [2] (setting [5]) and over 3.2 µM in assay [3] (setting [6]).

For `Cc1snc2c1c1cc(C(=O)NC[C@@H](C)O)ccc1n2-c1ccc(C(F)(F)F)cc1` [Example C90, N-[(2R)-2-hydroxypropyl]-3-methyl-8-[4-(trifluoromethyl)phenyl]-8H-[1,2]thiazolo [3,4-b]indole-5-carboxamide], the IC50 is 10 to 100 nM in assay [1] (setting [4]), 1 to 100 nM in assay [2] (setting [5]) and over 3.2 µM in assay [3] (setting [6]).

Turning to `Cc1snc2c1c1cc(C(=O)N[C@@H](CO)C3CCC3)ccc1n2-c1ccc(C(F)(F)F)cc1` [Example C91, N-[(1R)-1-cyclobutyl-2-hydroxyethyl]-3-methyl-8-[4-(trifluoromethyl)phenyl]-8H-[1,2]thiazolo[3,4-b]indole-5-carboxamide], the concentration for half-maximal inhibition (IC50) in assay [1] (setting [4]) was 10 to 100 nM; in assay [2] (setting [5]), 1 to 100 nM; in assay [3] (setting [6]), over 3.2 µM.

On to `Cc1snc2c1c1cc(C(=O)NC[C@H](C)O)ccc1n2-c1ccc(C(F)(F)F)cc1` [Example C94, N-[(2S)-2-hydroxypropyl]-3-methyl-8-[4-(trifluoromethyl)phenyl]-8H-[1,2]thiazolo[3,4-b]indole-5-carboxamide], for which the figures for the IC50 in assay [1] (setting [4]), in assay [2] (setting [5]) and in assay [3] (setting [6]) were 10 to 100 nM, 1 to 100 nM and over 30 µM, respectively.

Consider `Cc1c2c3cc(C(=O)O)ccc3n(-c3ccc(C(F)(F)F)cc3)c2nn1C` [Example C95, 2,3-dimethyl-8-[4-(trifluoromethyl)phenyl]-2H,8H-pyrazolo[3,4-b]indole-5-carboxylic acid], for which the results for the concentration for half-maximal inhibition (IC50) in assay [1] (setting [4]), in assay [2] (setting [5]) and in assay [3] (setting [6]) were 10 to 100 nM, 1 to 100 nM and over 30 µM, respectively.

With `CNC(=O)c1ccc2c(c1)c1c(C)n(C)nc1n2-c1ccc(C(F)(F)F)cc1` [Example C96, N,2,3-trimethyl-8-[4-(trifluoromethyl)phenyl]-2H,8H-pyrazolo[3,4-b]indole-5-carboxamide], the half-maximal inhibitory concentration (IC50) is 10 to 100 nM in assay [1] (setting [4]), 1 to 100 nM in assay [2] (setting [5]) and over 3.2 µM in assay [3] (setting [6]).

With `Cc1c2c3cc(C(=O)N[C@H](C)CO)ccc3n(-c3ccc(C(F)(F)F)cc3)c2nn1C` [Example C97, N-[(2R)-1-hydroxypropan-2-yl]-2,3-dimethyl-8-[4-(trifluoromethyl)phenyl]-2H,8H-pyrazolo[3,4-b]indole-5-carboxamide], the half-maximal inhibitory concentration (IC50) in assay [1] (setting [4]) is 10 to 100 nM; in assay [2] (setting [5]), 1 to 100 nM; in assay [3] (setting [6]) it was over 30 µM.

As to `Cc1c2c3cc(C(=O)NCc4ccncc4)ccc3n(-c3ccc(C(F)(F)F)cc3)c2nn1C` [Example C98, 2,3-dimethyl-N-[(pyridin-4-yl)methyl]-8-[4-(trifluoromethyl)phenyl]-2H,8H-pyrazolo[3,4-b]indole-5-carboxamide], the 50% inhibitory concentration (IC50) in assay [1] (setting [4]) was 10 to 100 nM; in assay [2] (setting [5]) it was 1 to 100 nM; in assay [3] (setting [6]), over 3.2 µM.

In the case of `Cc1c2c3cc(C(=O)N[C@@H](CO)c4ccccn4)ccc3n(-c3ccc(C(F)(F)F)cc3)c2nn1C` [Example C99, N-[(1R)-2-hydroxy-1-(pyridin-2-yl)ethyl]-2,3-dimethyl-8-[4-(trifluoromethyl)phenyl]-2H,8H-pyrazolo[3,4-b]indole-5-carboxamide], the concentration for half-maximal inhibition (IC50) in assay [1] (setting [4]) lay within 10 to 100 nM; in assay [2] (setting [5]), 1 to 100 nM; in assay [3] (class symbols), 10 to 30 µM.

Consider `C[C@H](NC(=O)c1ccc2c(c1)c1cn(C)nc1n2-c1ccc(C(F)(F)F)cc1)c1ccccn1` [Example C105, 2-methyl-N-[(1S)-1-(pyridin-2-yl)ethyl]-8-[4-(trifluoromethyl)phenyl]-2H,8H-pyrazolo[3,4-b]indole-5-carboxamide], for which the IC50 was 10 to 100 nM in assay [1] (setting [4]), 1 to 100 nM in assay [2] (setting [5]) and over 30 µM in assay [3] (setting [6]).

On to `Cn1cc2c3cc(N=S(C)(C)=O)ccc3n(-c3ccc(C(F)(F)F)cc3)c2n1` [Example C106, dimethyl({2-methyl-8-[4-(trifluoromethyl)phenyl]-2H,8H-pyrazolo[3,4-b]indol-5-yl}imino)-\6-sulfanone], for which the figures for the half-inhibitory concentration (IC50) in assay [1] (setting [4]), in assay [2] (setting [5]) and in assay [3] (setting [6]) were 10 to 100 nM, 100 to 1000 nM and over 30 µM, respectively.

Regarding `Cn1cc2c3nc(C(=O)N=S(C)(C)=O)ccc3n(-c3ccc(C(F)(F)F)cc3)c2n1` [Example C108, N-[dimethyl(oxo)-λ^6-sulfanylidene]-4-methyl-7-[4-(trifluoromethyl)phenyl]-4,5,7,12-tetraazatricyclo [6.4.0.0^∧{^2,6}]dodeca-1(8),2,5,9,11-pentaene-11-carboxamide], the half-inhibitory concentration (IC50) in assay [1] (setting [7]) is over 30000 nM; in assay [2] (setting [5]), 100 to 1000 nM; in assay [3] (setting [6]) it was over 30 µM.

As to `Cn1cc2c3cc(C(=O)O)cnc3n(-c3ccc(C(F)(F)F)cc3)c2n1` [Example C110, 4-methyl-7-[4-(trifluoromethyl)phenyl]-4,5,7,9-tetraazatri-cyclo[6.4.0.0^2,6]dodeca-1(8),2,5,9,11-pentaene-11-carboxylic acid], the IC50 in assay [1] (SK-HEP-1 reporter assay, class symbols) was 10 to 100 nM; in assay [2] (96 h, class symbols), 100 to 1000 nM; in assay [3] (setting [6]), over 30 µM.

For the molecule `Cn1cc2c3nc(C(=O)N=S(C)(=O)CCCO)ccc3n(-c3ccc(C(F)(F)F)cc3)c2n1` (stereo not drawn) [Example C117, N-[(3-hydroxypropyl)(methyl)oxo- \6-sulfanylidene]-4-methyl-7-[4-(trifluoromethyl)phenyl]-4,5,7,12-tetraazatricyclo[6.4.0.0^2,6∧{2,6}]dodeca-1(8),2,5,9,11-pentaene-11-carboxamide], the half-inhibitory concentration (IC50) in assay [1] (setting [7]) was over 1000 nM; in assay [2] (setting [5]), 100 to 1000 nM; in assay [3] (setting [6]) it was over 30 µM.

As to `C[C@H](NC(=O)c1ccc2c(n1)c1cn(C)nc1n2-c1ccc(C(F)(F)F)cc1)c1ccccn1` [Example C119, 4-methyl-N-[(1S)-1-(pyridin-2-yl)ethyl]-7-[4-(trifluoromethyl)phenyl]-4,5,7,12-tetraazatricyclo[6.4.0.0^2,6]dodeca-1(8),2,5,9,11-pentaene-11-carboxamide], the IC50 in assay [1] (setting [4]) was 10 to 100 nM; in assay [2] (setting [5]), 1 to 100 nM; in assay [3] (setting [6]) it was over 30 µM.
